From ChEMBL document CHEMBL1159042, “Discovery of N-aryl-9-oxo-9H-fluorene-1-carboxamides as a new series of apoptosis inducers using a cell- and caspase-based high-throughput screening assay. 2. Structure-activity relationships of the 9-oxo-9H-fluorene ring” (Bioorg Med Chem Lett, 2010)
Activity calls are given as the source filed them. The rule behind the calls is not given here.

What was measured:
T47D [1] = assay: Growth inhibition of human T47D cells after 48 hrs; assay type: functional
SNU-398 [2] = assay: Growth inhibition of human SNU398 cells after 48 hrs; assay type: functional; conditions: SNU-398, 48 h
HCT-116 [3] = assay: Growth inhibition of human HCT116 cells after 48 hrs; assay type: functional; conditions: HCT-116, 48 h
T47D [4] = assay: Induction of apoptosis in human T47D cells assessed as caspase activation after 48 hrs by HTS assay; assay type: functional, cell-based
HCT-116 [5] = assay: Induction of apoptosis in human HCT116 cells assessed as caspase activation after 48 hrs by HTS assay; assay type: functional, cell-based; conditions: HCT-116, 48 h
SNU-398 [6] = assay: Induction of apoptosis in human SNU398 cells assessed as caspase activation after 48 hrs by HTS assay; assay type: functional, cell-based; conditions: SNU-398, 48 h
SNU-398 [7] = assay: Ratio of drug to paclitaxel for induction of apoptosis in human SNU398 cells assessed as caspase activation after 48 hrs by HTS assay; assay type: functional
T47D [8] = assay: Ratio of drug to vinblastin for induction of apoptosis in human T47D cells assessed as caspase activation after 48 hrs by HTS assay; assay type: functional
SNU-398 [9] = assay: Ratio of drug to vinblastin for induction of apoptosis in human SNU398 cells assessed as caspase activation after 48 hrs by HTS assay; assay type: functional
[10] = Inhibition of tubulin polymerization at 0.5 uM
[11] = Inhibition of tubulin polymerization at 2 uM
T47D [12] = assay: Ratio of drug to paclitaxel for induction of apoptosis in human T47D cells assessed as caspase activation after 48 hrs by HTS assay; assay type: functional
HCT-116 [13] = assay: Ratio of drug to vinblastin for induction of apoptosis in human HCT116 cells assessed as caspase activation after 48 hrs by HTS assay; assay type: functional
[14] = Inhibition of tubulin polymerization at 3 uM
HCT-116 [15] = assay: Ratio of drug to paclitaxel for induction of apoptosis in human HCT116 cells assessed as caspase activation after 48 hrs by HTS assay; assay type: functional
T47D [16] = assay: Induction of apoptosis in human T47D cells assessed as accumulation at sub G1 phase at 2 uM after 48 hrs by propidium iodide-based flow cytometry; assay type: functional
T47D [17] = assay: Induction of apoptosis in human T47D cells assessed as accumulation at G2M phase at 2 uM after 48 hrs by propidium iodide-based flow cytometry; assay type: functional
T47D [18] = assay: Induction of apoptosis in human T47D cells assessed as accumulation at G1 phase at 2 uM after 24 hrs by propidium iodide-based flow cytometry; assay type: functional
T47D [19] = assay: Induction of apoptosis in human T47D cells assessed as accumulation at S phase at 2 uM after 24 hrs by propidium iodide-based flow cytometry; assay type: functional
T47D [20] = assay: Induction of apoptosis in human T47D cells assessed as accumulation at S phase at 2 uM after 48 hrs by propidium iodide-based flow cytometry; assay type: functional
T47D [21] = assay: Induction of apoptosis in human T47D cells assessed as accumulation at G2M phase at 2 uM after 24 hrs by propidium iodide-based flow cytometry; assay type: functional
T47D [22] = assay: Induction of apoptosis in human T47D cells assessed as accumulation at G1 phase at 2 uM after 48 hrs by propidium iodide-based flow cytometry; assay type: functional
T47D [23] = assay: Induction of apoptosis in human T47D cells assessed as accumulation at sub G1 phase at 2 uM after 24 hrs by propidium iodide-based flow cytometry; assay type: functional

SMILES	EC50 (T47D [4]) [nM]	EC50 (HCT-116 [5]) [nM]	EC50 (SNU-398 [6]) [nM]	further results
CC(=O)O[C@H]1C(=O)[C@@]2(C)[C@H]([C@H](OC(=O)c3ccccc3)[C@]3(O)C[C@H](OC(=O)[C@H](O)[C@@H](NC(=O)c4ccccc4)c4ccccc4)C(C)=C1C3(C)C)[C@]1(OC(C)=O)CO[C@@H]1C[C@@H]2O [PACLITAXEL]	–	–	–	GI50 (T47D [1]): 26 nM; GI50 (SNU-398 [2]): 61 nM; GI50 (HCT-116 [3]): 60 nM
O=C(Nc1ccccc1-n1cccn1)c1cccc2c1S(=O)(=O)c1ccccc1-2	> 10000	> 10000	480	–
Cc1ccc(C)c(NC(=O)c2cccc3c2Cc2ccccc2-3)c1	2400	> 10000	> 10000	–
Cc1ccccc1NC(=O)c1cccc2c1C(O)c1ccccc1-2 (configuration not stated)	3000	> 10000	> 10000	–
O=C(Nc1ccccc1-n1cccn1)c1cccc2c1C(=O)c1ccccc1-2	–	–	–	GI50 (T47D [1]): 160 nM; GI50 (SNU-398 [2]): 780 nM; GI50 (HCT-116 [3]): 1100 nM
O=C(Nc1ccccc1-n1cccn1)c1cccc2c1Cc1ccccc1-2	3200	6200	6900	–
O=C(Nc1ccccc1-n1cccn1)c1ccccc1C(=O)c1ccccc1	> 10000	> 10000	> 10000	–
Cc1ccc(NC(=O)c2cccc3c2Cc2ccccc2-3)c(C)c1	> 10000	> 10000	> 10000	–
O=C(Nc1ccccc1-n1cccn1)c1cccc2c1[nH]c1ccccc12	> 10000	> 10000	> 10000	–
O=C(Nc1ccccc1-n1cccn1)c1cccc2c1C(=O)c1cc([N+](=O)[O-])ccc1-2	290	220	150	Ratio (SNU-398 [7]): <10; Ratio (T47D [8]): <10; GI50 (T47D [1]): 110 nM; GI50 (SNU-398 [2]): 72 nM; Ratio (SNU-398 [9]): <10; inhibition [10]: Active; inhibition [11]: 50%; Ratio (T47D [12]): <10; Ratio (HCT-116 [13]): <10; GI50 (HCT-116 [3]): 420 nM; inhibition [14]: 50%; Ratio (HCT-116 [15]): <10
Cc1ccccc1NC(=O)c1cccc2c1Cc1ccccc1-2	1700	> 10000	> 10000	–
CC[C@]1(O)C[C@@H]2CN(CCc3c([nH]c4ccccc34)[C@@](C(=O)OC)(c3cc4c(cc3OC)N(C)[C@H]3[C@@](O)(C(=O)OC)[C@H](OC(C)=O)[C@]5(CC)C=CCN6CC[C@]43[C@@H]65)C2)C1 [VINBLASTINE]	–	–	–	GI50 (T47D [1]): 7 nM; GI50 (SNU-398 [2]): 5 nM; GI50 (HCT-116 [3]): 10 nM
O=C(Nc1ccccc1-n1cccn1)c1cccc2c1sc1ccccc12	2100	2200	1500	–
O=C(Nc1ccccc1-n1cccn1)c1cccc2c1OCC2	> 10000	> 10000	> 10000	–
[N-]=[N+]=Nc1ccc2c(c1)C(=O)c1c(C(=O)Nc3ccccc3-n3cccn3)cccc1-2	470	290	150	–
O=C(Nc1ccccc1-n1cccn1)c1cccc2c3ccccc3[s+]([O-])c12 (configuration not stated)	> 10000	> 10000	> 10000	–
O=C(Nc1ccccc1-n1cccn1)c1cccc2c1oc1ccccc12	> 10000	> 10000	> 10000	–
Cc1cccc(NC(=O)c2cccc3c2Cc2ccccc2-3)c1C	> 10000	> 10000	> 10000	–
O=C(Nc1ccccc1-n1cc(Br)cn1)c1cccc2c1C(=O)c1cc([N+](=O)[O-])ccc1-2	1300	1500	1400	–
Nc1ccc2c(c1)C(=O)c1c(C(=O)Nc3ccccc3-n3cccn3)cccc1-2	970	370	150	Ratio (SNU-398 [7]): <10; Ratio (T47D [8]): <10; Activity (T47D [16]): 50%; GI50 (T47D [1]): 150 nM; Activity (T47D [17]): 24%; GI50 (SNU-398 [2]): 84 nM; Ratio (SNU-398 [9]): <10; Activity (T47D [18]): 11%; inhibition [10]: Active; Activity (T47D [19]): 14%; inhibition [11]: 50%; Ratio (T47D [12]): <10; Ratio (HCT-116 [13]): <10; Activity (T47D [20]): 10%; GI50 (HCT-116 [3]): 510 nM; Activity (T47D [21]): 60%; inhibition [14]: 50%; Activity (T47D [22]): 10%; Activity (T47D [23]): 12%; Ratio (HCT-116 [15]): <10
